Data as given in patent US20230085307A1, “PYRIDAZINONE COMPOUND AND HERBICIDE” (NISSAN CHEMICAL CORPORATION, priority 2019, published 2023).

Columns and labels:
late watergrass = assay: Test Example 1: herbicidal activity, application before weed generation under submerged conditions (Table 16, symbol A); assay type: in vivo, late watergrass (Echinochloa oryzicola); conditions: amount of applied herbicide 320 g/ha
Summary of the method: (§1)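 Emulsion formulation, water-diluted to set dose, was put onto the flooded surface (4 cm depth, alluvial soil) the same day weeds were sown and 2.5-leaf rice transplanted. After 3 weeks at 25-30 °C under glass, each species was rated 0 (≤5% kill) to 5 (≥90% kill).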

Japanese bulrush = assay: Test Example 1: herbicidal activity, application before weed generation under submerged conditions (Table 16, symbol B); assay type: in vivo, Japanese bulrush (Schoenoplectus juncoides); conditions: amount of applied herbicide 320 g/ha
Summary of the method: as §1

oval-leafed pondweed = assay: Test Example 1: herbicidal activity, application before weed generation under submerged conditions (Table 16, symbol C); assay type: in vivo, oval-leafed pondweed (Monochoria vaginalis); conditions: amount of applied herbicide 320 g/ha
Summary of the method: as §1

barnyard grass [1] = assay: Test Example 3: herbicidal effect by foliage application, Wagner pot (Table 18, symbol H); assay type: in vivo, barnyard grass (Echinochloa crus-galli); conditions: 320 g/ha
Summary of the method: (§2)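 Plants were sown in alluvial soil held under 0.1–0.5 cm standing water and grown 14 days in a greenhouse at 25–30 °C. An emulsifiable formulation, water-diluted to the set dose, was then sprayed onto the foliage, and effects were scored three weeks later using previously defined criteria.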

Chinese sprangletop = assay: Test Example 3: herbicidal effect by foliage application, Wagner pot (Table 18, symbol D); assay type: in vivo, chinese sprangletop (Leptochloa chinensis); conditions: 320 g/ha
Summary of the method: as §2

rice flat sedge = assay: Test Example 3: herbicidal effect by foliage application, Wagner pot (Table 18, symbol E); assay type: in vivo, rice flat sedge (Cyperus iria); conditions: 320 g/ha
Summary of the method: as §2

southern crabgrass [2] = assay: Test Example 4: herbicidal effect by soil treatment (Table 19, symbol F); assay type: in vivo, southern crabgrass (Digitaria ciliaris); conditions: amount of applied herbicide 320 g/ha
Summary of the method: (§3)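 Seeds were sown in sterilized diluvial soil and covered with about 1.5 cm of soil. An emulsion formulation diluted with water to a predetermined herbicide amount was sprayed evenly onto the soil surface. Plants grew in a greenhouse at 25° C. to 30° C., and the effect was scored three weeks after application using criteria from an earlier test.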

green foxtail [3] = assay: Test Example 4: herbicidal effect by soil treatment (Table 19, symbol G); assay type: in vivo, green foxtail (Setaria viridis); conditions: amount of applied herbicide 320 g/ha
Summary of the method: as §3

barnyard grass [4] = assay: Test Example 4: herbicidal effect by soil treatment (Table 19, symbol H); assay type: in vivo, barnyard grass (Echinochloa crus-galli); conditions: amount of applied herbicide 320 g/ha
Summary of the method: as §3

wild oat [5] = assay: Test Example 4: herbicidal effect by soil treatment (Table 19, symbol I); assay type: in vivo, wild oat (Avena fatua); conditions: amount of applied herbicide 320 g/ha
Summary of the method: as §3

blackgrass [6] = assay: Test Example 4: herbicidal effect by soil treatment (Table 19, symbol J); assay type: in vivo, blackgrass (Alopecurus myosuroides); conditions: amount of applied herbicide 320 g/ha
Summary of the method: as §3

Italian ryegrass [7] = assay: Test Example 4: herbicidal effect by soil treatment (Table 19, symbol K); assay type: in vivo, Italian ryegrass (Lolium multiflorum); conditions: amount of applied herbicide 320 g/ha
Summary of the method: as §3

windgrass [8] = assay: Test Example 4: herbicidal effect by soil treatment (Table 19, symbol L); assay type: in vivo, windgrass (Apera spica-venti); conditions: amount of applied herbicide 320 g/ha
Summary of the method: as §3

velvetleaf [9] = assay: Test Example 4: herbicidal effect by soil treatment (Table 19, symbol M); assay type: in vivo, velvetleaf (Abutilon theophrasti); conditions: amount of applied herbicide 320 g/ha
Summary of the method: as §3

redroot pigweed [10] = assay: Test Example 4: herbicidal effect by soil treatment (Table 19, symbol N); assay type: in vivo, redroot pigweed (Amaranthus retroflexus); conditions: amount of applied herbicide 320 g/ha
Summary of the method: as §3

chickweed [11] = assay: Test Example 4: herbicidal effect by soil treatment (Table 19, symbol P); assay type: in vivo, common chickweed (Stellaria media); conditions: amount of applied herbicide 320 g/ha
Summary of the method: as §3

false cleavers [12] = assay: Test Example 4: herbicidal effect by soil treatment (Table 19, symbol Q); assay type: in vivo, false cleavers (Galium spurium); conditions: amount of applied herbicide 320 g/ha
Summary of the method: as §3

persian speedwell [13] = assay: Test Example 4: herbicidal effect by soil treatment (Table 19, symbol R); assay type: in vivo, Persian speedwell (Veronica persica); conditions: amount of applied herbicide 320 g/ha
Summary of the method: as §3

southern crabgrass [14] = assay: Test Example 5: herbicidal effect by foliage application, plastic box (Table 20, symbol F); assay type: in vivo, southern crabgrass (Digitaria ciliaris); conditions: foliage application, 320 g/ha, three weeks after application
Summary of the method: (§4)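 Plants sown in sterilized diluvial soil and grown 14 days in a greenhouse at 25° C to 30° C, then sprayed on the foliage with the compound's emulsion diluted in water to a predetermined herbicide amount. Injury to weeds and crops scored three weeks after application on a visual rating scale.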

green foxtail [15] = assay: Test Example 5: herbicidal effect by foliage application, plastic box (Table 20, symbol G); assay type: in vivo, green foxtail (Setaria viridis); conditions: foliage application, 320 g/ha, three weeks after application
Summary of the method: as §4

barnyard grass [16] = assay: Test Example 5: herbicidal effect by foliage application, plastic box (Table 20, symbol H); assay type: in vivo, barnyard grass (Echinochloa crus-galli); conditions: foliage application, 320 g/ha, three weeks after application
Summary of the method: as §4

wild oat [17] = assay: Test Example 5: herbicidal effect by foliage application, plastic box (Table 20, symbol I); assay type: in vivo, wild oat (Avena fatua); conditions: foliage application, 320 g/ha, three weeks after application
Summary of the method: as §4

blackgrass [18] = assay: Test Example 5: herbicidal effect by foliage application, plastic box (Table 20, symbol J); assay type: in vivo, blackgrass (Alopecurus myosuroides); conditions: foliage application, 320 g/ha, three weeks after application
Summary of the method: as §4

Italian ryegrass [19] = assay: Test Example 5: herbicidal effect by foliage application, plastic box (Table 20, symbol K); assay type: in vivo, Italian ryegrass (Lolium multiflorum); conditions: foliage application, 320 g/ha, three weeks after application
Summary of the method: as §4

windgrass [20] = assay: Test Example 5: herbicidal effect by foliage application, plastic box (Table 20, symbol L); assay type: in vivo, windgrass (Apera spica-venti); conditions: foliage application, 320 g/ha, three weeks after application
Summary of the method: as §4

velvetleaf [21] = assay: Test Example 5: herbicidal effect by foliage application, plastic box (Table 20, symbol M); assay type: in vivo, velvetleaf (Abutilon theophrasti); conditions: foliage application, 320 g/ha, three weeks after application
Summary of the method: as §4

redroot pigweed [22] = assay: Test Example 5: herbicidal effect by foliage application, plastic box (Table 20, symbol N); assay type: in vivo, redroot pigweed (Amaranthus retroflexus); conditions: foliage application, 320 g/ha, three weeks after application
Summary of the method: as §4

lambsquarters = assay: Test Example 5: herbicidal effect by foliage application, plastic box (Table 20, symbol O); assay type: in vivo, lambsquarters (Chenopodium album); conditions: foliage application, 320 g/ha, three weeks after application
Summary of the method: as §4

chickweed [23] = assay: Test Example 5: herbicidal effect by foliage application, plastic box (Table 20, symbol P); assay type: in vivo, common chickweed (Stellaria media); conditions: foliage application, 320 g/ha, three weeks after application
Summary of the method: as §4

false cleavers [24] = assay: Test Example 5: herbicidal effect by foliage application, plastic box (Table 20, symbol Q); assay type: in vivo, false cleavers (Galium spurium); conditions: foliage application, 320 g/ha, three weeks after application
Summary of the method: as §4

persian speedwell [25] = assay: Test Example 5: herbicidal effect by foliage application, plastic box (Table 20, symbol R); assay type: in vivo, Persian speedwell (Veronica persica); conditions: foliage application, 320 g/ha, three weeks after application
Summary of the method: as §4

With `CCCC(=O)Oc1c(C)nn(C)c(=O)c1-c1c(-c2ccc3c(c2)OCCO3)sc2cc(C)ccc12` [3-060] the “Herbicidal effect, A: late watergrass” value (late watergrass) was 1 (Herbicidal rate of 5% or more and less than 20%), the “Herbicidal effect, B: Japanese bulrush” value (Japanese bulrush) was 2 (Herbicidal rate of 20% or more and less than 40%) and the “Herbicidal effect, C: oval-leafed pondweed” value (oval-leafed pondweed) was 0 (Herbicidal rate of 5% or less (almost no effect)). For the same compound, the “herbicidal effect on barnyard grass (H)” value (barnyard grass [1]) was 3 (Herbicidal rate of 40% or more and less than 70%), the “herbicidal effect on Chinese sprangletop (D)” value (Chinese sprangletop) was 4 (Herbicidal rate of 70% or more and less than 90%) and the “herbicidal effect on rice flat sedge (E)” value (rice flat sedge) was 3 (Herbicidal rate of 40% or more and less than 70%). For the same compound, the “F: southern crabgrass, herbicidal effect grade” value (southern crabgrass [2]) was 0 (Herbicidal rate of 5% or less (almost no effect)), the “G: green foxtail, herbicidal effect grade” value (green foxtail [3]) was 0 (Herbicidal rate of 5% or less (almost no effect)) and the “H: barnyard grass, herbicidal effect grade” value (barnyard grass [4]) was 0 (Herbicidal rate of 5% or less (almost no effect)). For the same compound, the “I: wild oat, herbicidal effect grade” value (wild oat [5]) was 0 (Herbicidal rate of 5% or less (almost no effect)), the “J: blackgrass, herbicidal effect grade” value (blackgrass [6]) was 0 (Herbicidal rate of 5% or less (almost no effect)) and the “K: Italian ryegrass, herbicidal effect grade” value (Italian ryegrass [7]) was 0 (Herbicidal rate of 5% or less (almost no effect)). The “L: windgrass, herbicidal effect grade” value (windgrass [8]) was 0 (Herbicidal rate of 5% or less (almost no effect)), the “M: velvetleaf, herbicidal effect grade” value (velvetleaf [9]) was 0 (Herbicidal rate of 5% or less (almost no effect)) and the “N: redroot pigweed, herbicidal effect grade” value (redroot pigweed [10]) was 0 (Herbicidal rate of 5% or less (almost no effect)). For the same compound, the “P: chickweed, herbicidal effect grade” value (chickweed [11]) was 0 (Herbicidal rate of 5% or less (almost no effect)), the “Q: false cleavers, herbicidal effect grade” value (false cleavers [12]) was 0 (Herbicidal rate of 5% or less (almost no effect)) and the “R: persian speedwell, herbicidal effect grade” value (persian speedwell [13]) was 3 (Herbicidal rate of 40% or more and less than 70%). For the same compound, the “F: southern crabgrass, herbicidal effect grade” value (southern crabgrass [14]) was 0 (Herbicidal rate of 5% or less (almost no effect)), the “G: green foxtail, herbicidal effect grade” value (green foxtail [15]) was 0 (Herbicidal rate of 5% or less (almost no effect)) and the “H: barnyard grass, herbicidal effect grade” value (barnyard grass [16]) was 0 (Herbicidal rate of 5% or less (almost no effect)). The “I: wild oat, herbicidal effect grade” value (wild oat [17]) was 0 (Herbicidal rate of 5% or less (almost no effect)), the “J: blackgrass, herbicidal effect grade” value (blackgrass [18]) was 3 (Herbicidal rate of 40% or more and less than 70%) and the “K: Italian ryegrass, herbicidal effect grade” value (Italian ryegrass [19]) was 0 (Herbicidal rate of 5% or less (almost no effect)). For the same compound, the “L: windgrass, herbicidal effect grade” value (windgrass [20]) was 3 (Herbicidal rate of 40% or more and less than 70%), the “M: velvetleaf, herbicidal effect grade” value (velvetleaf [21]) was 0 (Herbicidal rate of 5% or less (almost no effect)) and the “N: redroot pigweed, herbicidal effect grade” value (redroot pigweed [22]) was 0 (Herbicidal rate of 5% or less (almost no effect)). The “O: lambsquarters, herbicidal effect grade” value (lambsquarters) was 0 (Herbicidal rate of 5% or less (almost no effect)), the “P: chickweed, herbicidal effect grade” value (chickweed [23]) was 5 (Herbicidal rate of 90% or more (almost completely withered)) and the “Q: false cleavers, herbicidal effect grade” value (false cleavers [24]) was 0 (Herbicidal rate of 5% or less (almost no effect)). The “R: persian speedwell, herbicidal effect grade” value (persian speedwell [25]) was 5 (Herbicidal rate of 90% or more (almost completely withered)).
